The text below walks through data of patent US20060045953A1 (priority 2004, published 2006).

The target of this test is T1, hT1R2/hT1R3 sweet receptor (Homo sapiens, UniProt Q7RTX0+Q8TE23).
T1 construct: expressed in transfected cells; host or cells: HEK293 derivative stably expressing Gα15, clone S-9
T1 sequence (Q8TE23 20-839): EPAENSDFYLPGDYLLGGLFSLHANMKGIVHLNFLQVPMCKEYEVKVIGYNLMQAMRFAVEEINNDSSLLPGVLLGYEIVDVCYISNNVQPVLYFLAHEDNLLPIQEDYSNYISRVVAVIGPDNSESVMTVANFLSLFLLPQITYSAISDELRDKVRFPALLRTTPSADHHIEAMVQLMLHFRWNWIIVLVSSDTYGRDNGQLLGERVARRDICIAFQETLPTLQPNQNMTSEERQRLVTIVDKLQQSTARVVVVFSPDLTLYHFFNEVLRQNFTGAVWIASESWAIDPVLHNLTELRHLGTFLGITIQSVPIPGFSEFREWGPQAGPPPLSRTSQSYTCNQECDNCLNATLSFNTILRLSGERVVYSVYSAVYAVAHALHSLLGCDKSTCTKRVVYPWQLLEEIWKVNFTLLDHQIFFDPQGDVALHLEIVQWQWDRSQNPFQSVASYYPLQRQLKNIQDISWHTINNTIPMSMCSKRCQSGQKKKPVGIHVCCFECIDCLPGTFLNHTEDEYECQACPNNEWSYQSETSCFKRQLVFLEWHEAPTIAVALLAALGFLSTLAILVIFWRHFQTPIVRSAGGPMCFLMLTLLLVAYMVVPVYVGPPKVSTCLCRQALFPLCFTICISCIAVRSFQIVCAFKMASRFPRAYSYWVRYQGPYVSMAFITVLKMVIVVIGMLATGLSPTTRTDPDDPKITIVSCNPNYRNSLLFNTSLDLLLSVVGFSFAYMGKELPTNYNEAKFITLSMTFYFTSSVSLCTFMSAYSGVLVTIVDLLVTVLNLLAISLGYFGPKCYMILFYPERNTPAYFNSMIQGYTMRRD
T1 sequence (Q7RTX0 21-852): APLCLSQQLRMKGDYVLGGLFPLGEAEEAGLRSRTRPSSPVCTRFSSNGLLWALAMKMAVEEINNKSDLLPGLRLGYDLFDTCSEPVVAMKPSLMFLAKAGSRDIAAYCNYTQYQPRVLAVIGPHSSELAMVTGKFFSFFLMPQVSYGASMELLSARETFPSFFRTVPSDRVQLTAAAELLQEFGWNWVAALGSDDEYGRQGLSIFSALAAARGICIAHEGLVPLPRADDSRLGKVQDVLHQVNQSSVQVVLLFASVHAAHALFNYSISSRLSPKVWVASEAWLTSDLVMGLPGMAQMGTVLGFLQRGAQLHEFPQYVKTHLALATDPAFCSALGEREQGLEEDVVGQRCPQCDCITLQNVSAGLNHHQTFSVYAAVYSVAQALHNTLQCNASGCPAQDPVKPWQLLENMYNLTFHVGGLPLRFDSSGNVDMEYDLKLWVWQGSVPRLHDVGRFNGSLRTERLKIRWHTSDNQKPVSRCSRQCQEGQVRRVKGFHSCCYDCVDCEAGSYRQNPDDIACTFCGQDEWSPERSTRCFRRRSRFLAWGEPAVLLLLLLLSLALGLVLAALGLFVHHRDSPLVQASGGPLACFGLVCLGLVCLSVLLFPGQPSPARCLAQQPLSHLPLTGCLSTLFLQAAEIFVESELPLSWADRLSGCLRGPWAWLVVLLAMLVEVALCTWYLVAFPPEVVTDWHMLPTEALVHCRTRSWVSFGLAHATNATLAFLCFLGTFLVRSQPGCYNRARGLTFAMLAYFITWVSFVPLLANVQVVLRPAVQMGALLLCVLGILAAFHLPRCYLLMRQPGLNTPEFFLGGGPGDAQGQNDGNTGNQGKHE
Briefly: In vitro hT1R2/hT1R3 sweet taste receptor activation assay (FLIPR, dose response). Format: cell-based. As for the experimental part:
Activity was determined using an automated fluorometric imaging assay on a FLIPR instrument (Fluorometric Intensity Plate Reader, Molecular Devices, Sunnyvale, Calif.) (designated FLIPR assay). […] S-9 cells were grown for 24 hours at 37° C. S-9 cells were then loaded with the calcium dye Fluo-3AM (Molecular Probes, Eugene, Oreg.), 4 µM in a phosphate buffered saline (D-PBS) (Invitrogen, Carlsbad, Calif.), for 1 hour at room temperature. After replacement with 25 µl D-PBS, stimulation was performed in the FLIPR instrument and at room temperature by the addition of 25 µl D-PBS supplemented with different stimuli at concentrations corresponding to twice the desired final level.
For dose-responses analysis, stimuli were presented in duplicates at 10 different concentrations ranging from 60 nM to 30 µM. Activities were normalized to the response obtained with 400 mM D-fructose, a concentration that elicits maximum receptor response. EC50s were determined using a non-linear regression algorithm (using a Senomyx, Inc. software), where the Hill slope, bottom asymptotes and top asymptotes were allow to vary.

The mark [1] stands for this setting: read-out: EC50 for activation of a hT1R2/hT1R3 sweet receptor expressed in an HEK293 cell line.
The mark [2] stands for this setting: Table E, Sweet Enhancer Amides, read-out: Sweet EC50.

Like-named read-outs stand apart in the source and are kept apart here.

In the case of `Cc1c(F)c(F)c(C(=O)N[C@@H](C)C(C)C)c(F)c1F` [Example 163, (S)-2,3,5,6-tetrafluoro-4-methyl-N-(3-methylbutan-2-yl)benzamide], the EC50 under setting [1] came out at 600 nM.

For `COc1c(Cl)cc(C(=O)Nc2ccccc2C)cc1Cl` [Example E88, 3,5-dichloro-4-methoxy-N-o-tolylbenzamide], the EC50 under setting [2] was 1840 nM.

For the compound `Cc1cccc2c1CN(C(=O)Nc1ccc3c(c1)OCO3)C2` [Example 199, N-(3,4-(methylenedioxy)phenyl)-4-methylisoindoline-2-carboxamide], the EC50 under setting [1] worked out at 950 nM.

`CCCc1nocc1C(=O)N[C@@H]1CCCc2c(OC)cccc21` [Example 188, (R)-3-Propyl-N-(5-methoxy-1,2,3,4-tetrahydronaphthalen-1-yl)isoxazole-4-carboxamide]: the EC50 under setting [1] amounted to 240 nM.

`Cc1c(F)c(F)c(C(=O)N[C@@H](C)C(C)(C)C)c(F)c1F` [Example E38, (S)-N-(3,3-dimethylbutan-2-yl)-2,3,5,6-tetrafluoro-4-methylbenzamide]: the EC50 under setting [2] is 900 nM.

Turning to `O=C(Nc1ccc(F)c(F)c1F)N1Cc2ccccc2C1` [Example E103, N-(2,3,4-trifluorophenyl)isoindoline-2-carboxamide], the EC50 under setting [2] came out at 2580 nM.

Regarding `O=C(NC1CCc2ccccc21)c1cccc(Cl)c1O` (stereo not drawn) [Example E51, 3-chloro-N-(2,3-dihydro-1H-inden-1-yl)-2-hydroxybenzamide], the EC50 under setting [2] worked out at 1490 nM.

With `CCc1nocc1C(=O)N[C@@H]1CCCc2c(C)cc(C)cc21` [Example E128, (R)-N-(5,7-dimethyl-1,2,3,4-tetrahydronaphthalen-1-yl)-3-ethylisoxazole-4-carboxamide], the EC50 under setting [2] is 1240 nM.

As to `Cc1c(Cl)cccc1NC(=O)N1CCc2ccccc2C1` [Example E112, N-(3-chloro-2-methylphenyl)-3,4-dihydroisoguinoline-2(1H)-carboxamide], the EC50 under setting [2] was 4330 nM.

`CC1CCCC(NC(=O)c2ccnc(Cl)c2)C1C` (stereo not drawn) [Example E44, 2-chloro-N-(2,3-dimethylcyclohexyl)isonicotinamide]: the EC50 under setting [2] worked out at 1080 nM.

With `COc1c(Cl)ccc(Cl)c1C(=O)Nc1ccccc1F` [Example E84, 3,6-dichloro-N-(2-fluorophenyl)-2-methoxybenzamide], the EC50 under setting [2] is 830 nM.

Turning to `CC1CCc2ccccc2C1NC(=O)c1cccc(Cl)c1O` (stereo not drawn) [Example 179, 3-Chloro-2-hydroxy-N-(2-methyl-1,2,3,4-tetrahydronaphthalen-1-yl)benzamide], under setting [1], the EC50 was 380 nM.

With `CCOc1ccc(CCNC(=O)c2ccnn2C)cc1` [Example E83, N-(4-ethoxyphenethyl)-1-methyl-i H-pyrazole-5-carboxamide], the EC50 under setting [2] stood at 4680 nM.

Take `COc1cccc(C(=O)NC2CCC(C)CC2)c1O` (stereo not drawn) [Example E72, 2-hydroxy-3-methoxy-N-(4-methylcyclohexyl)benzamide]: the EC50 under setting [2] stood at 3350 nM.

Turning to `Cc1cc(C)c(C(=O)NC2CCCC(C)C2C)c(C)c1` (stereo not drawn) [Example E50, N-(2,3-dimethylcyclohexyl)-2,4,6-trimethylbenzamide], the EC50 under setting [2] was determined as 1410 nM.

In the case of `COc1c(Cl)ccc(Cl)c1C(=O)NC1CCCCC1C` (stereo not drawn) [Example E37, 3,6-dichloro-2-methoxy-N-(2-methylcyclohexyl)benzamide], the EC50 under setting [2] worked out at 770 nM.

Regarding `CC1CCC(NC(=O)c2cccc(Cl)c2O)c2ccccc21` (stereo not drawn) [Example E4, 3-chloro-2-hydroxy-N-(4-methyl-1,2,3,4-tetrahydronaphthalen-1-yl)benzamide], under setting [2], the EC50 stood at 1610 nM.

On to `Cc1c(F)cccc1C(=O)N[C@H]1CCCc2ccccc21` [Example E19, (S)-3-fluoro-2-methyl-N-(1,2,3,4-tetrahydronaphthalen-1-yl)benzamide], for which the EC50 under setting [2] is 3570 nM.

Regarding `COc1cc(Cl)c(NC(=O)c2cccc(C(F)(F)F)c2)c(OC)c1` [Example E85, N-(2-Chloro-4,6-dimethoxy-phenyl)-3-trifluoromethyl-benzamide], the EC50 under setting [2] worked out at 1420 nM.

Turning to `Cc1cccc2c1CCC[C@H]2NC(=O)c1cccc(Cl)c1O` [Example E126, (R)-3-chloro-2-hydroxy-N-(5-methyl-1,2,3,4-tetrahydronaphthalen-1-yl)benzamide], under setting [2], the EC50 stood at 890 nM.

Regarding `Cc1cccc(C)c1C(=O)NC1CCCCC1C` (stereo not drawn) [Example 168, 2,6-dimethyl-N-(2-methylcyclohexyl)benzamide], the EC50 under setting [1] was found to be 1880 nM.

Regarding `Cc1c(F)c(F)c(C(=O)NC(C)CCC(C)C)c(F)c1F` (stereo not drawn) [Example E70, 2,3,5,6-tetrafluoro-4-methyl-N-(5-methylhexan-2-yl)benzamide], the EC50 under setting [2] turned out to be 3200 nM.

`O=C(N[C@@H]1CCCc2ccccc21)c1cncc(Br)c1` [Example E21, (R)-5-bromo-N-(1,2,3,4-tetrahydronaphthalen-1-yl)nicotinamide]: the EC50 under setting [2] was 4190 nM.

For `CCC(COC)NC(=O)c1ccc(C)cc1C` (stereo not drawn) [Example E42, N-(1-methoxybutan-2-yl)-2,4-dimethylbenzamide], under setting [2], the EC50 is 1060 nM.

Consider `COc1ccc(NC(=O)N2Cc3cccc(C)c3C2)c(F)c1` [Example E118, N-(2-fluoro-4-methoxyphenyl)-4-methylisoindoline-2-carboxamide], for which the EC50 under setting [2] turned out to be 100 nM.

Turning to `CCC(CC)NC(=O)c1cccc(Cl)c1Cl` [Example E75, 2,3-dichloro-N-(pentan-3-yl)benzamide], the EC50 under setting [2] is 3780 nM.

As for `Cc1nocc1C(=O)NC1c2ccccc2CCC1C` (stereo not drawn) [Example E6, 3-methyl-N-(2-methyl-1,2,3,4-tetrahydronaphthalen-1-yl)isoxazole-4-carboxamide], under setting [2], the EC50 was 1480 nM.

In the case of `Cc1ccc(NC(=O)N2Cc3cccc(C)c3C2)c(C)c1` [Example E115, N-(2,4-dimethylphenyl)-4-methylisoindoline-2-carboxamide], the EC50 under setting [2] stood at 250 nM.

With `CC1CCc2ccccc2C1NC(=O)c1cccc(Cl)c1O` (stereo not drawn) [Example E1, 3-chloro-2-hydroxy-N-(2-methyl-1,2,3,4-tetrahydronaphthalen-1-yl)benzamide], the EC50 under setting [2] was found to be 190 nM.

Turning to `CCc1cccc(NC(=O)c2c(C)cccc2OC)c1` [Example E98, N-(3-ethylphenyl)-2-methoxy-6-methylbenzamide], the EC50 under setting [2] was determined as 4630 nM.

On to `Cc1ccc(NC(=O)c2ccc(Cl)c(C)c2)c(C)c1` [Example E92, 4-chloro-N-(2,4-dimethylphenyl)-3-methylbenzamide], for which, under setting [2], the EC50 amounted to 2740 nM.

`O=C(Nc1c(F)cc(Br)cc1F)N1Cc2ccc(Br)cc2C1` [Example 198, 5-Bromo-N-(4-bromo-2,6-difluorophenyl)isoindoline-2-carboxamide]: the EC50 under setting [1] was 420 nM.

`O=C(N[C@@H]1CCCc2ccccc21)c1cccc(Cl)c1` [Example E22, (R)-3-chloro-N-(1,2,3,4-tetrahydronaphthalen-1-yl)benzamide]: under setting [2], the EC50 turned out to be 4520 nM.
